# Earlier results in patent US20160058814A1, “PLANT EXTRACTS AND RELATED COMPOSITIONS, METHODS AND SYSTEMS” (priority 2014, published 2016).
# Details: in vivo
compound,measurement,value
"O=c1ccc2ccccc2o1 [Coumarin, coumarin]",LD50,275 mg/kg
